Experimental data published in US20100197650A1, “COMPOSITIONS AND METHODS OF TREATMENT COMPRISING CEFTAROLINE” (FOREST LABORATORIES HOLDINGS LTD., priority 2008, published 2010).
Values after ≈ are worked out from the molar mass of the structure shown.

What was measured:
HA-MRSA [1] = assay: Susceptibility testing MIC/MBC, broth microdilution (Example 3); assay type: cell-based, Staphylococcus aureus
Description: Two hundred clinical HA-MRSA isolates, harboring the SCCmecIV type, were evaluated for susceptibility testing. […] Four strains, including 1 hVISA and 1 VISA, characterized by population analysis profile and Macro Etest were selected for time-kill analysis.
Trypose soy agar (TSA; Difco, Detroit, Mich.) was used for colony counting.
Minimum inhibitory concentrations (MIC) and minimum bactericidal concentrations (MBC) were determined by broth microdilution for all antimicrobials, according to the Clinical and Laboratory Standards Institute (CLSI) guidelines (Clinical and Laboratory Standards Institute. 2006. Methods for Dilution Antimicrobial Susceptibility Tests for Bacteria That Grow Aerobically; Approved Standard. 7th ed. Wayne, Pa.: CLSI). MBC values were determined by plating of aliquots of 5 μL from clear wells onto TSA. All susceptibility testing were performed in duplicate.

HA-MRSA [2] = assay: Time-kill curves at ¼ and ½ MIC (Example 3); assay type: cell-based, Staphylococcus aureus; conditions: drug alone at ½ MIC, the 4 tested HA-MRSA strains
Description: Four randomly selected HA-MRSA isolates were evaluated in time-kill experiments, using a starting inoculum at ˜10^6 CFU/mL and antimicrobials at ¼ and ½ MIC. Regimens included ceftaroline, vancomycin and tobramycin alone or combination of tobramycin with ceftaroline or vancomycin. […] Additivity, antagonism and indifference were defined as <2 but >1 log10 kill, >1 log10 growth and ±1 log kill, respectively.
Differences between regimens were analyzed by T-test or ANOVA with Tukey's post hoc test. […] A P value <0.05 was considered significant.

Enterococcus faecalis = assay: MIC, broth microdilution (Example 1); assay type: cell-based
Description: (§1) Stock solutions of all antibacterial agents were prepared at 80-fold (80×) the final target concentration in the appropriate solvent and the solution was allowed to stand for 60 minutes. All antibacterial agents were in solution under these conditions. The final drug concentrations in the FIC assay plates were set to bracket the MIC value of each agent for each test organism, unless the strain was totally resistant to the test agent.
(§2) The test organisms were originally received from clinical sources, or from the American Type Culture Collection. Upon receipt, the isolates were streaked onto the appropriate growth medium: Chocolate Agar for H. influenzae, Tryptic Soy Agar II (Becton Dickinson, Sparks, Md.) supplemented with 5% defibrinated sheep blood for streptococci, and unsupplemented Tryptic Soy Agar II for all other organisms. Colonies were harvested from these plates and a cell suspension was prepared in Tryptic Soy Broth (Becton Dickinson) containing cryoprotectant. Aliquots were then frozen at −80° C. On the day prior to assay, the frozen seeds of the organisms to be tested in that session were thawed and streaked for isolation onto the appropriate agar medium plates and incubated overnight at 35° C.
(§3) The test medium for H. influenzae was Haemophilus Test Medium. Streptococci were tested in Mueller Hinton II Broth (Becton Dickinson; Lot 6235472) supplemented with 2% lysed horse blood (Cleveland Scientific, Bath, Ohio; Lot H88621). All other organisms were tested in Mueller Hinton II Broth (Becton Dickinson, Lot 6235472). The broth was prepared at 1.05× normal weight/volume to offset the 5% volume of the drugs in the final test plates.
(§4) In order to select the proper test concentrations for each drug combination, minimal inhibitory concentration (MIC) values were first determined using the broth microdilution method previously described (Clinical and Laboratory Standards Institute. Methods for Dilution Antimicrobial Susceptibility Tests for Bacteria That Grow Aerobically; Approved Standard—Seventh Edition. Clinical and Laboratory Standards Institute document M7-A7 [ISBN 1-56238-587-9]. Clinical and Laboratory Standards Institute, 940 West Valley Road, Suite 1400, Wayne, Pa. 19087-1898 USA, 2006).
(§5) The wells of standard 96-well microdilution plates (Falcon 3918) were filled with 150 μL of 100% DMSO using the Multidrop 384. These plates were used to prepare the drug “mother plates” which provided the serial drug dilutions for the drug combination plates. The Biomek 2000 was used to transfer 150 μl of each stock solution (80×) from the wells in Column 1 of a deep well plate to the corresponding wells in Column 1 of the mother plate and to make seven 2-fold serial dilutions. Two mother plates, one for each drug, were combined to form a “checkerboard” pattern by transfer of equal volumes (using a multi-channel pipette) to the drug combination plate. Row H and Column 8 each contained serial dilutions of one of the agents alone for determination of the MIC.
(§6) Plates were stacked 3 high, covered with a lid on the top plate, placed in plastic bags, and incubated at 35° C. for approximately 20 hours. Following incubation, the microplates were removed from the incubator and viewed from the bottom using a ScienceWare plate viewer. Prepared reading sheets were marked for the MIC of drug 1 (row H), the MIC of drug 2 (column 8) and the wells of the growth-no growth interface.

Staphylococcus aureus = assay: MIC, broth microdilution (Example 1); assay type: cell-based; conditions: Staphylococcus aureus
Description: as §1, §2, §3, §4, §5, §6

Streptococcus pneumoniae = assay: MIC, broth microdilution (Example 1); assay type: cell-based; conditions: Streptococcus pneumoniae
Description: as §1, §2, §3, §4, §5, §6

[3] = Staphylococcus aureus, MRSA / VISA, HA-MRSA isolate R2303 (VISA)
[4] = Staphylococcus aureus, MRSA, HA-MRSA isolate R3804
[5] = Staphylococcus aureus, MRSA, HA-MRSA isolate R3875 (hVISA)
[6] = Staphylococcus aureus, MRSA, HA-MRSA isolate R4039

For `CN[C@H](CC(C)C)C(=O)N[C@H]1C(=O)N[C@@H](CC(N)=O)C(=O)N[C@H]2C(=O)N[C@H]3C(=O)N[C@H](C(=O)N[C@H](C(=O)O)c4cc(O)cc(O)c4-c4cc3ccc4O)[C@H](O)c3ccc(c(Cl)c3)Oc3cc2cc(c3O[C@@H]2O[C@H](CO)[C@@H](O)[C@H](O)[C@H]2O[C@H]2C[C@](C)(N)[C@H](O)[C@H](C)O2)Oc2ccc(cc2Cl)[C@H]1O` [Vancomycin], the “% of Isolates with MBC 0.25 μg/mL” value (HA-MRSA [1]; 200 HA-MRSA isolates) was 0.5%, the “% of Isolates with MBC 0.5 μg/mL” value (HA-MRSA [1]; 200 HA-MRSA isolates) was 6% and the “% of Isolates with MBC 1 μg/mL” value (HA-MRSA [1]; 200 HA-MRSA isolates) was 52.5%. For the same compound, the “% of Isolates with MBC 2 μg/mL” value (HA-MRSA [1]; 200 HA-MRSA isolates) was 36.5%, the “% of Isolates with MBC ≧4 μg/mL” value (HA-MRSA [1]; 200 HA-MRSA isolates) was 4.5% and the “% of Isolates with MIC 0.25 μg/mL” value (HA-MRSA [1]; 200 HA-MRSA isolates) was 1.5%. The “% of Isolates with MIC 0.5 μg/mL” value (HA-MRSA [1]; 200 HA-MRSA isolates) was 14.5%, the “% of Isolates with MIC 1 μg/mL” value (HA-MRSA [1]; 200 HA-MRSA isolates) was 62% and the “% of Isolates with MIC 2 μg/mL” value (HA-MRSA [1]; 200 HA-MRSA isolates) was 21.5%. The “% of Isolates with MIC ≧4 μg/mL” value (HA-MRSA [1]; 200 HA-MRSA isolates) was 0.5%, the “MBC range” value (HA-MRSA [1]; 200 HA-MRSA isolates) was 0.25 to 4 µg/mL and the “MIC range” value (HA-MRSA [1]; 200 HA-MRSA isolates) was 0.25 to 4 µg/mL. It also gave an MIC50 (HA-MRSA [1]; Staphylococcus aureus, MRSA) of 1 µg/mL (≈ 0.69 µM), an MIC90 (HA-MRSA [1]; Staphylococcus aureus, MRSA) of 2 µg/mL (≈ 1.38 µM) and an MBC (HA-MRSA [1]; [3]) of 8 µg/mL (≈ 5.52 µM). It also gave an MIC (HA-MRSA [1]; [3]) of 4 µg/mL (≈ 2.76 µM), an MBC (HA-MRSA [1]; [4]) of 1 µg/mL (≈ 0.69 µM) and an MIC (HA-MRSA [1]; [4]) of 0.5 µg/mL (≈ 0.345 µM). For the same compound, the MBC (HA-MRSA [1]; [5]) was 2 µg/mL (≈ 1.38 µM), the MIC (HA-MRSA [1]; [5]) was 2 µg/mL (≈ 1.38 µM) and the MBC (HA-MRSA [1]; [6]) was 1 µg/mL (≈ 0.69 µM). The MIC (HA-MRSA [1]; [6]) was 1 µg/mL (≈ 0.69 µM), the bactericidal activity (HA-MRSA [2]) was “did not display bactericidal activity” and the MIC (Enterococcus faecalis; E. faecalis 0796 (VSE)) was 2 µg/mL. The MIC (Enterococcus faecalis; Enterococcus faecalis) was 2 µg/mL, the MIC (Staphylococcus aureus; MRSA, S. aureus 0765 (MRSA)) was 2 µg/mL and the MIC (Staphylococcus aureus; MRSA, S. aureus 2053 (MRSA)) was 1 µg/mL. The MIC (Staphylococcus aureus; MSSA, S. aureus 0753 (MSSA)) was 1 µg/mL, the MIC (Staphylococcus aureus; MSSA, S. aureus 2063 (MSSA)) was 1 µg/mL and the MIC (Streptococcus pneumoniae; PRSP, S. pneumoniae 0880 (PRSP)) was 0.5 µg/mL. It also gave an MIC (Streptococcus pneumoniae; PRSP, S. pneumoniae 0884 (PRSP)) of 0.5 µg/mL, an MIC (Streptococcus pneumoniae; S. pneumoniae 0866 (PSSP)) of 0.25 µg/mL and an MIC (Streptococcus pneumoniae; S. pneumoniae 0869 (PSSP)) of 0.5 µg/mL.
